Laboratory results reported in patent publication EP3628672A1 (priority 2018, dated 2020).

How the values were obtained:
[1] = biological target: T1, purified LasB protein from P. aeruginosa (Pseudomonas aeruginosa, UniProt P14756); assay: Fluorometric assay to determine Ki (Abz-Ala-Gly-Leu-Ala-p-Nitro-Benzyl-Amide substrate); type: biochemical
T1 construct: purchased Merck or Charles River Laboratories
Procedure, shortened: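 Purified P. aeruginosa LasB (10–140 ng/ml) with 250 µM Abz-Ala-Gly-Leu-Ala-p-nitrobenzylamide in 50 mM Tris-HCl pH 7.4, 2.5 mM CaCl2, 0.01% Triton X100, 37 °C; hydrolysis fluorescence (Ex 340/Em 415 nm) followed over 30 min, inhibitor 0.0016–200 µM. Ki = IC50/(1+[S]/Km), Km 214 µM.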

[2] = test system: CFBE; assay: Cellular model: IL-6 content (ELISA) in lung epithelial cells treated with PAO1 supernatant; type: cell-based, human; conditions: PAO1 supernatant pre-incubated with compound 1h at 37°C, 6h incubation
From the text: (§1) These degradations are beneficial for P. aeruginosa pathogenesis by inhibiting antimicrobial peptide while impairing lung function of the host by promoting lung damage and inhibiting epithelial cell repair. In mice, intranasally instillated LasB induced significant inflammation, injury and death. […] Our compounds are therefore been tested in cellular models to define inhibitory effect of our series on LasB deleterious effect on human lung epithelial cell models (NCI-H292 and CFBE). Supernatants from PAO1 wild type and lasB mutant (PAO1ΔlasB) are pre-incubated with Example 1 at 10 times the final concentrations for 1h at 37°C. Then, supernatants are added to cell lines. After 6h incubation, cell culture supernatants are recovered, IL-6 and Trappin-2 contents are analysed by ELISA method. A Student t-Test is performed to assess the statistical significance between conditions (p < 0.05, *). NCI-H292 and CFBE cells express respectively Trappin-2 and IL-6. Whether treatment with culture supernatant from PAO1ΔlasB induces an overexpression of both immune factors, the treatment with PAO1 supernatant lead to strong reduction of IL-6 and Trappin-2 detected. LasB, hydrolyzing IL-6 and Trappin-2, hijacks the immune response against PA. […] By restoring immune response and secretion of IL-6 and Trappin-2, Example 1 and related LasB inhibitors may restore eradication of PA by the immune system.

[3] = test system: NCI-H292; assay: Cellular model: Trappin-2 content (ELISA) in lung epithelial cells treated with PAO1 supernatant; type: cell-based, human; conditions: PAO1 supernatant pre-incubated with compound 1h at 37°C, 6h incubation
From the text: as §1

[4] = biological target: T2, LasB (Pseudomonas aeruginosa, UniProt P14756); assay: Elastin assay to determine % inhibition (Elastin Congo-Red, dialysed culture supernatant); type: biochemical, P. aeruginosa PAO1; conditions: read-out: Elastin hydrolysis % inhibition @ 50 / 25 µM inhibitor concentration
T2 construct: uses as source of enzyme dialysed supernatant from P. aeruginosa PAO1; endogenous in cells; host or cells: P. aeruginosa PAO1 culture supernatant, filtered and dialysed
T2 sequence (P14756 198-498): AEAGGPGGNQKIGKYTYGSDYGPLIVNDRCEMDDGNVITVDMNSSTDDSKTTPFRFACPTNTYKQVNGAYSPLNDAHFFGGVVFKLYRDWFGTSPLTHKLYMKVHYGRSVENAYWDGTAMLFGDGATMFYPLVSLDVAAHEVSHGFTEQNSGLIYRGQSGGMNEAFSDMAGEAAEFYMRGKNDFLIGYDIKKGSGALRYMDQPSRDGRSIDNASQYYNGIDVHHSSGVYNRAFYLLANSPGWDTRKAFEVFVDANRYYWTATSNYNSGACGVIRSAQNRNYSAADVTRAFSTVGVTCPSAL
Procedure, shortened: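 Enzyme source was dialysed PAO1 culture supernatant (50 mM Tris-HCl pH 7.4, 2.5 mM CaCl2), mixed with Elastin Congo-Red and 0.01% Triton X-100. Compound was routinely 50 to 1.56 µM, incubated overnight at 37 °C with shaking. Dye release at OD495 gave % inhibition relative to DMSO and no-enzyme controls.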

T1 sequence (P14756 198-498): as above

O=C(O)CC1(C(=O)NCc2nc(-c3ccccc3)cs2)Cc2ccccc2C1 [Example 1, 2-[2-[(4-phenylthiazol-2-yl)methylcarbamoyl]indan-2-yl]acetic acid]
Ki [1]: 50 to 200 nM | level of IL-6 [2]: restored in a dose response maneer level of both Trappin-2 and IL-6 similar to the control | level of Trappin-2 [3]: restored in a dose response maneer level of both Trappin-2 and IL-6 similar to the control | inhibition at 25 µM [4]: > 75%
